# Test results reported in US7476383B2, “Antibody selective for DR4 and uses thereof” (The UAB Research Foundation, priority 2000, dated 2009).
# Residues, ends and D or L forms follow the SMILES beside them. *: point of attachment. Cbz = O=C(OCc1ccccc1)*; CH2F = FC*
# What was measured:
# [1] = test system: 2LMP human breast cancer xenografts; test: 2LMP breast cancer xenografts in athymic nude mice; format: in vivo
# Description: Nude mice were inoculated s.c. with the human breast cancer cell line, 2LMP. Treatment with i.p. doses of 200 μg of 2E12 occurred on days 7, 10, 14, 17, 21, and 24 after tumor cell injection. Animals received i.v. adriamycin (doxorubicin) (6 mg/kg) on days 8, 12, and 16.
# Athymic nude mice were injected s.c. with 3×10^7 2LMP cells. […] The growth of tumors was monitored over time. […] Tumor size and regression rates were determined.
# Data from 6 independent experiments were analyzed by individual experiment. Treatment combinations were compared with respect to in vivo anti-tumor efficacy, i.e., inhibition of tumor growth, which was measured as three endpoints; extension of tumor doubling times, percentage of tumor regressions, and growth rates over time. The actual number of days at which the tumor doubled in surface area (product of two diameters) relative to baseline on day 7 after tumor cell injection was used in the doubling time analysis. The nonparametric Kruskal-Wallis test was used for median tumor doubling time comparisons between treatments. Fisher's exact test was used to compare the proportions of tumor regressions and relapse-free regressions across treatment groups. To determine if any combination therapy produced significant synergistic inhibition of tumor growth, i.e., more than additive, the growth curves from the serial area measurements were compared using a linear mixed model approach over the first 3 weeks after start of therapy (Lindsey, J. K. Models for Repeated Measurements, pp. 100-142, Oxford, 1993). To test for synergistic effects of the combination therapies, an interaction term was included in the model. If the interaction term was significant and the effect was inhibition of growth at a rate greater than additive then the interaction was considered synergistic.
# A total of 166 animals, 10 treatment groups, and 6 independent experiments were included in the aggregate analysis. Treatment combinations were compared with respect to in vivo anti-tumor efficacy. The median tumor doubling times were analyzed using the Kruskal-Wallis test and Fisher's exact test was used to compare the proportions of tumor regressions and relapse-free regressions across treatment groups.
# 2LMP xenografts = test: TUNEL analysis of apoptosis in xenografts; format: in vivo, athymic nude mice; conditions: day 14; untreated 1%
# Description: One group of mice was untreated. The xeno grafts were dissected for the study of apoptosis on day 14 after tumor cell injection. The reason for the substantial reduction in treatment intensity compared to our standard treatment protocol was to allow adequate tumor tissue for analysis on day 14. Tunel assay for apoptosis in tumor xenografts was performed as follows. Five-micron paraffin sections of tissue were mounted on Superfrost/Plus slides and heated at 58° C. for 1 h. Tissue sections were deparaffinized in three changes of xylene and rehydrated with one change of absolute ethanol, 95% ethanol, and 70% ethanol, each in 5-min increments. Then, the sections were placed in Tris-buffered saline (0.5M Tris base, 0.15 M NaCl, 0.0002% Triton X-100, pH 7.6). Apoptotic nuclei were detected using an Apop Tag Peroxidase kit (Intergen, Purchase, N.Y.). Proteinase K (20 μg/ml in distilled deionized H2O) was added to the tissue specimens and incubated at room temperature for 15 min. Endogenous peroxidases were quenched with an aqueous solution of 3% hydrogen peroxide for 5 min. […] Approximately 10 random fields were evaluated for percentage of Tunel stained and percentage of intensely stained apoptotic bodies throughout the tissue.
# DR4 = molecular target: T1, DR4 (Homo sapiens, UniProt O00220); test: ELISA binding to DR4-Ig fusion protein; conditions: ELISA plates coated with DR4/hIgG1
# T1 construct: fusion protein comprising the extracellular domain of human DR5 or DR4 and the Fc region of human IgG1
# T1 sequence (O00220 24-239 limits assumed): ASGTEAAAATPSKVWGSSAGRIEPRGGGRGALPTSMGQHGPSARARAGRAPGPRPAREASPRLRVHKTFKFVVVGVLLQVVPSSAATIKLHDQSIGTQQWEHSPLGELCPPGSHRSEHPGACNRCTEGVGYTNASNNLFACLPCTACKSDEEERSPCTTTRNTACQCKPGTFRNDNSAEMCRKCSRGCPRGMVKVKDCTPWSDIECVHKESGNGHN
# Description: ELISA plates are coated with 2 μg/ml of DR4-Ig or DR5-Ig fusion protein overnight. […] The reactions are developed by TMB substrate buffer and measured by the Benchmark Microplate Reader (BioRad). The Kd values are estimated by the one-site binding model of non-linear regression using GraphPad Prism software (GraphPad Software, San Diego, Calif.).
# Daudi = test: Apoptosis by ATPLite, overnight; format: cell-based, human; conditions: B lymphoma line Daudi
# Description: (§1) Cell viability is determined using (1) the ATPLite kit according to the manufacturer's instructions (Packard Instruments, Meriden, Conn.); (2) the MTT Cell proliferation/viability kit (Sigma); or (3) PI staining of dead cells and analyzed by flow cytometry. At end of culture, cells are stained with 10 μg/ml PI and PI negative cells are gated as viable cells. For analysis of condensed nuclei of hepatocytes, cells are stained with 10 ng/ml […] (Molecular Probes) and analyzed by flow cytometry.
# H-9 cells = test: Apoptosis by ATPLite, overnight; format: cell-based, human
# Description: as §1
# Hs683 and U251-MG = test: Apoptosis by ATPLite, overnight; format: cell-based, human; conditions: glioma lines Hs683 and U251-MG
# Description: as §1
# Jurkat and CEM-6 = test: Apoptosis by ATPLite, overnight; format: cell-based, human
# Description: as §1
# Molt-4 and U937 cells = test: Apoptosis by ATPLite, overnight; format: cell-based, human
# Description: as §1
# [2] = test system: Primary peripheral blood T cells; test: Apoptosis by ATPLite, overnight; format: cell-based, human
# Description: as §1
# SKW6.4, EB-3, and Raji = test: Apoptosis by ATPLite, overnight; format: cell-based, human; conditions: B lymphoma lines SKW6.4, EB-3, Raji
# Description: as §1
# U87, U937 and Molt-4 = test: Apoptosis by ATPLite, overnight; format: cell-based, human; conditions: glioma line U87, hematopoietic lines U937 and Molt-4
# Description: as §1
# primary B cells = test: Apoptosis by ATPLite, overnight; format: cell-based, human
# Description: as §1
# OA synovial cells = test: Apoptosis of primary synovial cells; format: cell-based, human; conditions: OA72M cells
# Excerpt: (§2) Cell viability is the percentage of the cpm of treated cells versus the cpm of untreated cells.
# (§3) The expression of DR5 on a panel of eight primary cultured synovial cells from patients with RA is compared with that on eight primary cultured synovial cells from patients with osteoarthritis (hereinafter referred to as “OA”). The eight human primary RA synovial cell cultures RA-1014, RA-1016, RA-1021, RA-512, RA-707, RA-811, RA-716, and RA-929 are kindly provided by Dr. M. Ohtsuki (Sankyo Co. Ltd., Tokyo, Japan) and cultured in DMEM supplemented with 10% FCS, penicillin, streptomycin, and glutamine. The […] OA synovial cell primary cell cultures are isolated from the synovial tissues of OA patients by a standard collagenase method and cultured under the same conditions. The passage number of all primary cells is under 10. The expression of DR5 is determined by FACs analysis as described in Example 5.
# RA synovial cells = test: Apoptosis of primary synovial cells; format: cell-based, human; conditions: RA-1014, RA-811, RA-716, RA929; high concentrations (>50 ng/ml)
# Excerpt: as §2, §3
# NF-κb = test: Gel-shift assay in RA synovial cells; format: cell-based, human; conditions: 50 ng/ml TRAIL, Fas ligand or TRA-8, 20 ng/ml TNF-a
# Description: There is considerable evidence to support the concept that there are close links between the signaling of apoptosis and the signaling of proliferation (45). It has been established that DR5 is able to activate a NF-kb pathway in addition to apoptosis signaling transduction, and that NF-κb activation may be able to transduce an anti-apoptosis signal. Therefore a gel-shift assay is carried out. […] The nuclear extracts are prepared and incubated with the […] [^32P]-labeled oligo-DNA probe. The results are analyzed using the cyclone phospha-imager (TopCount NXT, Packard Instrument Company, CT).
# MMP-1 and MMP-3 = test: MMP ELISA of RA synovial cell supernatants; format: cell-based, human; conditions: RA synovial cells, overnight
# Description: Thus, it is possible that TRAIL, like TNF-α, may serve as a pro-inflammatory cytokine. […] The levels of the MMP-1 and MMP-3 in the culture supernatants are determined by the ELISA kits.
# normal human hepatocytes = test: Hepatocyte viability (ATPLite); format: cell-based
# Excerpt: For 24-hour cell viability assays, fresh normal human hepatocytes in 96-well plates were purchased from In Vitro Technology (Baltimore, Md.). […] For 6-hour viability assays, normal hepatocytes or hepatocellular cancer cells are isolated from fresh surgical specimens collected from UAB Tissue Procurement Center. All reagents for isolation of human hepatocytes including hepatocytes perfusion buffer, digest medium, washing medium, and attachment medium were purchased from Gibco. The tissue slides are digested in the Hepatocyte Digest Medium at 37° C. with shaking (50 rpm) for one hour. The isolated hepatocytes are harvested by low speed centrifugation (50 g, 3 min), and washed with the Hepatocyte Washing Medium six times. Single cell suspension of hepatocytes are cultured in the Attachment Medium containing 10% FCS in 96-well Matrigel plates (BD) for six hours. Non-attached hepatocytes are removed by twice washing with pre-warmed attachment medium.
# Jurkat cells = test: Jurkat cell viability (ATPLite, MTT, PI exclusion); format: cell-based, human; conditions: 50 ng/ml TRA-8 overnight
# Description: as §1
# [3] = aggregate, number of animals (%)
molecule,measurement,setting,value
"COc1cccc2c1C(=O)c1c(O)c3c(c(O)c1C2=O)C[C@@](O)(C(=O)CO)C[C@@H]3O[C@H]1C[C@H](N)[C@H](O)[C@H](C)O1 [Adriamycin, adriamycin]",Complete Regressions No relapse (%),[1]; [3],0
same,Complete Regressions Total (%),[1]; [3],0
same,complete regressions of tumor,"[1]; individual experiments (FIG. 25-27), animals",no complete regressions
same,inhibition of tumor growth compared to untreated controls,"[1]; individual experiments, TRA-8 200 μg i.p. x6, Kruskal-Wallis test",did not differ from controls
same,intense TUNEL stained cells,2LMP xenografts,6%
"TRAIL: soluble recombinant human TRAIL (aa 95 to 281) with FLAG tag, Alexis; used with anti-FLAG crosslinker",binding activity to DR4,DR4,bound to DR4
same,susceptibility to apoptosis,Daudi,much less susceptible
same,susceptibility to apoptosis,H-9 cells,resistant
same,sensitivity to apoptosis,Hs683 and U251-MG,resistant
same,susceptibility to apoptosis,Jurkat and CEM-6,highly susceptible
same,susceptibility to apoptosis,Molt-4 and U937 cells,partially susceptible
same,susceptibility to apoptosis,[2],resistant
same,susceptibility to apoptosis,"SKW6.4, EB-3, and Raji",very susceptible
same,sensitivity to apoptosis,"U87, U937 and Molt-4",exhibited sensitivity
same,apoptosis after treatment,primary B cells,did not undergo apoptosis
same,susceptibility to apoptosis,OA synovial cells,completely resistant
same,cell death,RA synovial cells,~100%
same,NF-κb activation,NF-κb,activated in a time-dependent fashion
same,production of MMPs,MMP-1 and MMP-3,not associated with increased release
same,hepatocytes killed,"normal human hepatocytes; 6-hour culture, 500 ng/ml TRAIL",Over 20%
same,hepatocytes killed,"normal human hepatocytes; 24-hour culture, 1 μg/ml, TRAIL plus crosslinker",more than 80%
same,hepatocytes killed in the presence of cycloheximide,"normal human hepatocytes; four-hour culture, 1 μg/ml cycloheximide",greater than 70%
IL-1b: proinflammatory cytokine,production of MMPs,MMP-1 and MMP-3,increased
CC(NC(=O)C(NC(=O)OCc1ccccc1)C(C)C)C(=O)NC(CC(=O)O)C(=O)CF (stereo not drawn) [Z-VAD] (Cbz-Val-Ala-Asp-CH2F; configuration not given here),inhibition of TRA-8-induced cell death,Jurkat cells,completely inhibited
TNF-α,NF-κb activation,NF-κb,activated in a time-dependent fashion
same,production of MMPs,MMP-1 and MMP-3,increased
"Fas ligand: recombinant soluble Fas ligand used with enhancer (protein, UniProt P48023 103-281, looked up, extracellular domain, recombinant soluble Fas ligand used with enhancer) extracellular domain: QLFHLQKELAELRESTSQMHTASSLEKQIGHPSPPPEKKELRKVAHLTGKSNSRSMPLEWEDTYGIVLLSGVKYKKGGLVINETGLYFVYSKVYFRGQSCNNLPLSHKVYMRNSKYPQDLVMMEGKMMSYCTTGQMWARSSYLGAVFNLTSADHLYVNVSELSLVNFEESQTFFGLYKL",NF-κb activation,NF-κb,unable to induce NF-κb activation
